Assay results taken from PubChem BioAssay (NCI).
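Growth conditions: 96-well plates. Treatment: test compound, 48 hours, 5 concentrations. Analysis: linear interpolation between bracketing concentrations; unreached endpoints set to highest concentration. At the GI50, growth is halved. TGI: total growth inhibition.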

Tests used:
Experiment in all cases: NCI anticancer screen, dose series, 48 h
CAKI-1 renal = test system: CAKI-1 renal
HCT-15 colon = test system: HCT-15 colon
HOP-92 NSCLC = test system: HOP-92 NSCLC
K-562 leukemia = test system: K-562 leukemia
KM12 colon = test system: KM12 colon
NCI-H226 lung = test system: NCI-H226 lung
RXF 393 renal = test system: RXF 393 renal
SW-620 colon = test system: SW-620 colon
U251 CNS = test system: U251 CNS
UACC-257 melanoma = test system: UACC-257 melanoma

Compound | GI50 (CAKI-1 renal) | TGI (CAKI-1 renal) | GI50 (HCT-15 colon) | TGI (HCT-15 colon) | GI50 (HOP-92 NSCLC) | TGI (HOP-92 NSCLC) | GI50 (K-562 leukemia) | TGI (K-562 leukemia) | GI50 (KM12 colon) | TGI (KM12 colon) | GI50 (NCI-H226 lung) | TGI (NCI-H226 lung) | GI50 (RXF 393 renal) | TGI (RXF 393 renal) | GI50 (SW-620 colon) | TGI (SW-620 colon) | GI50 (U251 CNS) | TGI (U251 CNS) | GI50 (UACC-257 melanoma) | TGI (UACC-257 melanoma)
Cc1cc(NC(=O)c2ccc(C)c(Nc3nccc(-c4cccnc4)n3)c2)cc(-n2cnc(C)c2)c1 | 2.18 µM | 7.15 µM | 7.49 µM | > 27 µM | 0.716 µM | 2.78 µM | 0.0915 µM | 4.03 µM | 4.83 µM | 14.7 µM | 1.68 µM | 5.39 µM | 1.56 µM | 4.88 µM | 4.7 µM | 26.4 µM | 1.99 µM | 7.61 µM | 1.53 µM | 5.92 µM
NC(N)=N/N=C/c1cc(Cl)cc(Cl)c1O | – | > 100 µM | – | 58.9 µM | – | > 100 µM | – | > 100 µM | – | > 100 µM | – | > 100 µM | – | > 100 µM | – | > 100 µM | – | > 100 µM | – | > 100 µM
CN1CCc2c(Sc3ccc(C(=O)NO)cc3)c3ccccc3n2C1 | 3.95 µM | 14.5 µM | 3.62 µM | 13.4 µM | 2 µM | 6.88 µM | 2.91 µM | > 33 µM | 1.72 µM | 3.67 µM | 2.75 µM | 14.9 µM | 2.37 µM | 9.51 µM | 1.92 µM | 5.22 µM | 1.6 µM | 3.29 µM | 1.75 µM | 9.1 µM
Cc1sc2nc(NCCc3c[nH]c4ccc(Cl)cc34)[nH]c(=O)c2c1C | 1.5 µM | 3.7 µM | 1.52 µM | 11.2 µM | 2.06 µM | 5.64 µM | 3.03 µM | 10.7 µM | 2.17 µM | 5.54 µM | 3.18 µM | 17.4 µM | 1.79 µM | 3.41 µM | 2.64 µM | 10.9 µM | 2.26 µM | 6.94 µM | 2.14 µM | 6.34 µM
CN(C)c1ccc2nc3ccc(=O)cc-3sc2c1 | 2.24 µM | > 90.7 µM | 0.322 µM | > 86 µM | 1.46 µM | 29.5 µM | 0.919 µM | > 100 µM | 0.781 µM | > 78.7 µM | 7.59 µM | > 85.1 µM | 2.92 µM | 36.9 µM | 1.36 µM | > 100 µM | 0.72 µM | 32.2 µM | 0.38 µM | 3.29 µM
COC(=O)[C@@H](NC(=O)[C@@H](OC)[C@@H]1Cc2cc3cc(OC4CC(OC5CC(O)C(O)C(C)O5)C(O)C(C)O4)c(C)c(O)c3c(O)c2C(=O)[C@H]1OC1CC(OC2CC(OC3CC(C)(O)C(O)C(C)O3)C(O)C(C)O2)C(O)C(C)O1)C(C)C (stereo not given in full) | 0.107 µM | 1.67 µM | 0.181 µM | > 32.5 µM | 0.101 µM | 1.13 µM | 0.139 µM | > 32.5 µM | 0.154 µM | > 32.5 µM | 0.109 µM | 0.963 µM | 0.0822 µM | 0.427 µM | 0.121 µM | > 32.5 µM | 0.106 µM | 1.6 µM | 0.128 µM | 8.91 µM
CCOC(=O)c1[nH]c(COC(C)=O)c(CCCOC(C)=O)c1CCCOC(C)=O | – | > 100 µM | – | > 100 µM | – | > 100 µM | – | > 100 µM | – | > 100 µM | – | > 100 µM | – | > 100 µM | – | > 100 µM | – | > 100 µM | – | > 100 µM
